Laboratory results reported in patent US20190142835A1, “INHIBITION OF AUTOPHAGY USING PHOSPHOLIPASE A2 INHIBITORS” (OREGON HEALTH & SCIENCE UNIVERSITY, priority 2017, published 2019).

Assays:
[1] = tested on: ACHN cells; test: High content imaging screen of 116 small molecule inhibitors for p62 and pS6; type: cell-based, human; conditions: HCI screen, 72 hr; for p62 expression and phosphorylation of S6: 7-point dilution series
From the text: We used a metastatic human RCC cell line, ACHN. Small molecule inhibitors have been extensively used in RCC over the last decade. […] Importantly, p62 is an autophagy substrate that is degraded along with its cargo, and so is expected to decrease with induction of autophagy. Therefore, we monitored p62 steady-state levels as an initial screen of autophagy flux. Next, we combined the measurement of the p62 with a measurement of mTORC1 activity an independent readout to evaluate autophagy. mTORC1 plays the central role in the anabolic process by increasing protein content through ribosomal biogenesis and elongation of protein translation. Specifically, mTORC1 induces mRNA translation by inducing the activation of p70S6 kinase and the subsequent phosphorylation of the S6 ribosomal protein. To ensure increased cellular biomass, mTORC1 downregulates autophagy. We chose the phosphorylation status of the downstream target of mTORC1 signaling, ribosomal S6 (hereafter S6) as a readout for mTORC1 activity.
To provide a straightforward method for detecting the induction of autophagy, we monitored ACHN cells for small molecule inhibitors which decreased the antibody labelled levels of p62 protein and pS6 phosphorylation (see methods below for detailed experiment procedure). To that end, automated high content imaging (HCl) microscopy was used to detect induction of autophagy as documented by the […] by p62 protein expression and mTORC1 inhibition by the decrease in S6 phosphorylation. The HCl assay was optimized for 384-well plate screening. Drug screening plates were designed and created as previously described.
A 7-point dilution series of 116 small molecule inhibitors covering a 1000× concentration range were plated into three, 384-well plates using the EP Motion automated dispensing system. Control wells with equal volumes of DMSO were included as negative controls. ACHN cells were grown, trypsinized counted, and plated directly into warm drug plates using Multidrop combi dispenser. Plates were incubated for 72 hr and subsequently imaged on the Olympus ScanR Platform at 10× magnification performing 4 images per well in 384 well plates. Single-cell nuclear and cytoplasmic fluorescent intensities were calculated using the Olympus ScanR Analysis Software: the DAPI-positive region of each cell was used as a boundary to quantitate nuclei counts for analysis of cell growth and integrated nuclear DNA staining intensity was used for cell cycle analysis. A 10-pixel extension of the nuclear region (and not including the nuclear region) was used to quantitate cytoplasmic signal of immunofluorescent staining of p62 protein and phosphorylation of S6. Mean signal intensity of each marker in all cells per well was used as the metric for cytoplasmic marker expression (average intensity of pS6 and p62). Unsupervised hierarchical clustering was used to identify compounds that produced similar pS6 and p62 dose response phenotypes after treatment.

[2] = tested on: ACHN cells; test: Cell viability (CellTiter-Glo), ACHN; type: cell-based, human; conditions: for proliferation (cell viability): ACHN, 3 days
Experimental: (§1) Cell viability assays were performed by plating 2000 cells/well in 96-well plates in triplicate and treating the following day with the indicated agent. The experiment was continued for 3 days and then cell viability was determined using CellTiter-Glo assay kit (Promega).
The assay was measured using a luminometer. […] Experimental results are the average of at least three independent experiments.

[3] = tested on: ACHN cells; test: Apoptosis (Caspase 3/7-Glo), ACHN; type: cell-based, human
Experimental: (§2) Apoptosis was determined using Caspase 3/7-Glo assay kit (Promega) following the manufacturer's instructions. Briefly, 2000 cells per well were plated in 96 well plates and cultured for 72 h. […] Caspase 3/7 activity was measured using a luminometer. Luminescence values were normalized by cell numbers.

[4] = tested on: SN12C cells; test: Apoptosis (Caspase 3/7-Glo), SN12C; type: cell-based, human; conditions: 72 h
Experimental: as §2

[5] = tested on: SN12C cells; test: Cell viability (CellTiter-Glo), SN12C; type: cell-based, human; conditions: 3 days
Experimental: as §1, with “(Promega). The assay was measured using a luminometer. […] Experimental results are the average of at least three independent experiments.” for “(Promega).”

[6] = tested on: PI3K, mTORC1 and mTORC2 signaling; test: Western blotting of PI3K-AKT-mTOR signaling; type: cell-based, human
Experimental: Cells were plated in 6 well dishes and treated the following day with the indicated agents. Treatments were for 24 hours, after which cells were washed with ice cold PBS and lysed with RIPA buffer (Sigma). Phosphatase inhibitor cocktail set II and protease inhibitor cocktail set III (EMD Millipore) were added at the time of lysis. Lysates were centrifuged at 15,000 g×10 min at 4 degrees C. Protein concentrations were calculated based on a BCA assay (Thermo Scientific) generated standard curve. Proteins were resolved using the NuPAGE Novex Mini Gel system on 4% to 12% Bis-Tris Gels (Invitrogen). For western blotting, equal amounts of cell lysates (15-20 μg of protein) were resolved with SDSPAGE, and transferred to membranes. The membrane was probed with primary antibodies, washed, and then incubated with corresponding fluorescent secondary antibodies and washed. The fluorescent signal was captured using LI-COR (Lincoln, Nebr.) Odyssey Imaging System, and fluorescent intensity was quantified using the Odyssey software where indicated. The following antibodies were used for Western blots: p-S6 (S240/244), S6, LC3B, p-Akt(S473), p-Akt(T308), Akt, cleaved caspase3 (Cell Signaling Technologies). p-Stat3 (Y705), Stat3 and β-actin (AC15) (Abcam). Ki67 (Dako) and cleaved caspase3 (Cell Signaling Technologies) were used for immunohistochemistry. […] BX795 and GDC0941 were purchased from Sigma.

[7] = tested on: mTORC1; test: Autophagy induction and mTORC1 inhibition by JAK inhibitors not contained in the library; type: cell-based
[8] = tested on: ACHN cells; test: Cellular respiration (XF96 Seahorse, ECAR and OCR); type: cell-based, human; conditions: 24 h
Experimental: Oxygen consumption and extracellular acidification rates were carried out in a XF96 Seahorse Analyzer (Seahorse Bioscience, Billerica, Mass., USA). Cells were plated in the wells of 96-well plates (8×10^3 cells/well; XF96 plates, Seahorse Bioscience, North Billerica, Mass.) and incubated at 37° C. overnight. The next day, cells were treated with indicated drugs for 24 hours and then the medium was changed to XF Assay Medium and loaded with glucose, oligomycin, and 2-DG, respectively, as manufacture's recommendation.

[9] = tested on: ACHN cells; test: Lipid droplet staining (Bodipy 493/503), ACHN; type: cell-based, human
Experimental: Cells were grown on coverslips then treated with drug for 24 hours. Cells were fixed in 4% paraformaldehyde for 15 min, rinsed with PBS. Cells were washed with a 1% saponin solution for 15 min at room temperature then washed several times in PBS to remove detergent. Cells were then incubated in Bodipy (ThermoFisher #D3922) at a final concentration of 1 uM for 10 min. Bodipy was removed and slides were rinsed with PBS then air dried and mounted on slides using Dako mounting media with Dapi.

Question: For `Cn1c(=O)n(-c2ccc(C(C)(C)C#N)cc2)c2c3cc(-c4cnc5ccccc5c4)ccc3ncc21` [BEZ-235], which “p62 expression and phosphorylation of S6” value [1] is on record?
Answer: reduced both p62 expression and phosphorylation of S6

Question: For `O=C(NCCCNc1nc(Nc2cccc(NC(=O)N3CCCC3)c2)ncc1I)c1cccs1` [BX795], which “proliferation (cell viability)” value [2] is on record?
Answer: some anti-proliferative effects

Question: What about the “apoptosis (cleaved-caspase 3/7)” value ([3]; ACHN, 72 h) of the same molecule?
Answer: little or no effect on apoptosis

Question: What about the “apoptosis (cleaved-caspase 3/7)” value [4] of the same molecule?
Answer: little or no effect on apoptosis

Question: And the “proliferation (cell viability)” value [5]?
Answer: some anti-proliferative effects

Question: And the “mTORC1 or mTORC2 signaling (AKT S473 and S6 phosphorylation)” value [6]?
Answer: not able to inhibit mTORC1 or mTORC2 signaling

Question: For `C[C@]12O[C@H](C[C@]1(O)CO)n1c3ccccc3c3c4c(c5c6ccccc6n2c5c31)CNC4=O` [CEP-701], which autophagy induction [7] is on record?
Answer: potently induced autophagy

Question: What about the mTORC1 inhibition [7] of the same molecule?
Answer: inhibited mTORC1

Question: For `CN1CC[C@H](c2c(O)cc(O)c3c(=O)cc(-c4ccccc4Cl)oc23)[C@H](O)C1` [Flavopiridol], which “p62 expression and phosphorylation of S6” value [1] is on record?
Answer: reduced both p62 expression and phosphorylation of S6

Question: How did the “proliferation (cell viability)” value [2] turn out when `CS(=O)(=O)N1CCN(Cc2cc3nc(-c4cccc5[nH]ncc45)nc(N4CCOCC4)c3s2)CC1` [GDC-0941] was run?
Answer: some anti-proliferative effects

Question: And the “proliferation (cell viability)” value [5]?
Answer: some anti-proliferative effects

Question: And the “effect on mTORC1 activity in cells treated with CYT387” value ([6]; added to CYT387)?
Answer: additive inhibitory effect on mTORC1 activity

Question: How did the “p62 expression and phosphorylation of S6” value [1] turn out when `O=S(=O)(NCCNC/C=C/c1ccc(Br)cc1)c1cccc2cnccc12` [H89] was run?
Answer: reduced both p62 expression and phosphorylation of S6

Question: With `O=C(c1ccc(/C=C/c2n[nH]c3ccccc23)cc1)N1CCNCC1` [KW2449] as the molecule, how does the “induction of autophagy / autophagic flux” value [1] read?
Answer: induce autophagy

Question: How did the “proliferation on co-treatment with CYT387, MK2206, CYT387+MK2206” value [2] turn out when `CCCCCCCC/C=C\CCCCCCCCOCCOP(=O)([O-])OCC[N+](C)(C)C` [OOEPC, oleyloxyethylphosphocholine] was run?
Answer: minimal additional effect on proliferation

Question: And the “ECAR and OCR on addition to the CYT387-MK2206 combination” value [8]?
Answer: markedly decreased ECAR and OCR

Question: What about the “basal OCR on addition to the CYT387-MK2206 combination” value [8] of the same molecule?
Answer: marked decrease in the basal OCR

Question: And the “spare respiratory capacity on addition to the CYT387-MK2206 combination” value [8]?
Answer: significantly reduced the spare respiratory capacity

Question: And the “apoptosis (Caspase3/7 activity) on addition to CYT387, MK2206, CYT387+MK2206” value [3]?
Answer: significantly increased apoptosis

Question: What about the “LD abundance on addition to CYT387, MK2206 and CYT387-MK2206 co-treated cells” value ([9]; 24 hrs) of the same molecule?
Answer: significantly reduced the LD abundance

Question: `CC(C)n1nc(-c2cc3cc(O)ccc3[nH]2)c2c(N)ncnc21` [PP-242] was tested. Which “p62 expression and phosphorylation of S6” value [1] did it give?
Answer: reduced both p62 expression and phosphorylation of S6

Question: How did the “p62 expression and phosphorylation of S6” value [1] turn out when `CN[C@@H]1C[C@H]2O[C@@](C)([C@@H]1OC)n1c3ccccc3c3c4c(c5c6ccccc6n2c5c31)C(=O)NC4` [Staurosporine] was run?
Answer: reduced both p62 expression and phosphorylation of S6

Question: How did the “p62 expression and phosphorylation of S6” value [1] turn out when `CC(C)C[C@H](NC(=O)[C@H](Cc1ccccc1)NC(=O)c1cnccn1)B(O)O` [Velcade] was run?
Answer: reduced both p62 expression and phosphorylation of S6

Question: Which “induction of autophagy / autophagic flux” value [1] does the source give for `Oc1nc(-c2ccc(C(F)(F)F)cc2)nc2c1CSCC2` [XAV939] here?
Answer: induce autophagy

Question: How did the “apoptosis on addition to CYT387-MK2206 treated cells” value [3] turn out when `CCc1c(C(=O)C(N)=O)c2c(OCC(=O)O)cccc2n1Cc1ccccc1` [varespladib] was run?
Answer: increased apoptosis

Question: And the “LDs on addition to CYT387-MK2206 treated cells” value [9]?
Answer: decreased LDs
